Data taken from the supplement of paper PMC6045584.
± gives the standard deviation of the averaged measurements.

Assays:
[1] = compound: C[C@@H](Oc1cc(-c2cnn(C3CCNCC3)c2)cnc1N)c1c(Cl)ccc(F)c1Cl; test: surviving fraction relative to DMSO-only wells; higher = less growth inhibition; conditions: exposure time: 5 days
In short: (§1)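 In 384-well plates, 250–500 log-phase tumour cells per well were given 24 hours before five days of continuous exposure to inhibitors at 0.5, 1, 5, 10, 50, 100, 500 and 1000 nM. Surviving fraction is luminescence from CellTiter-Glo, normalised to the median of wells containing DMSO alone. Reading took place after 10 minutes at room temperature.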

[2] = compound: NS(=O)(=O)OC[C@@H]1C[C@@H](n2ccc3c(N[C@H]4CCc5ccccc54)ncnc32)C[C@@H]1O [MLN-4924]; test: as above; conditions: exposure time: 5 days
In short: as §1

Row | Test System | surviving fraction ([1]; 0.5 nM) | surviving fraction ([1]; 1 nM) | surviving fraction ([1]; 5 nM) | surviving fraction ([1]; 10 nM) | surviving fraction ([1]; 100 nM) | surviving fraction ([1]; 500 nM) | surviving fraction ([1]; 1000 nM) | surviving fraction ([2]; 0.5 nM) | surviving fraction ([2]; 1 nM) | surviving fraction ([2]; 5 nM) | surviving fraction ([2]; 10 nM) | surviving fraction ([2]; 50 nM) | surviving fraction ([2]; 100 nM) | surviving fraction ([2]; 500 nM) | surviving fraction ([2]; 1000 nM) | surviving fraction ([1]; 50 nM)
1 | LM7 BONE | 0.745 ± 0.03 | 0.765 ± 0.027 | 0.779 ± 0.026 | 0.782 ± 0.075 | 0.859 ± 0.081 | 0.366 ± 0.031 | 0.168 ± 0.0087 | 0.919 ± 0.081 | 1.02 ± 0.026 | 1.09 ± 0.059 | 0.946 ± 0.034 | 0.486 ± 0.033 | 0.256 ± 0.026 | 0.1 ± 0.02 | 0.1 ± 0.0098 | –
2 | LNCAP PROSTATE | 1.07 ± 0.056 | 1.16 ± 0.13 | 1.15 ± 0.034 | 1.13 ± 0.12 | 0.801 ± 0.17 | 0.528 ± 0.075 | 0.464 ± 0.031 | 0.939 ± 0.1 | 1 ± 0.021 | 0.803 ± 0.092 | 0.496 ± 0.051 | 0.085 ± 0.014 | 0.026 ± 0.001 | 0.0227 ± 0.0011 | 0.024 | 1 ± 0.045
3 | MCF7 BREAST | 0.826 ± 0.063 | 0.818 ± 0.027 | 0.827 ± 0.046 | 0.802 ± 0.03 | 0.834 ± 0.034 | 0.755 ± 0.011 | 0.511 ± 0.017 | 0.889 ± 0.029 | 0.9226 ± 0.0022 | 0.935 ± 0.013 | 0.975 ± 0.027 | 0.641 ± 0.063 | 0.448 ± 0.062 | 0.265 ± 0.026 | 0.235 ± 0.016 | 0.89 ± 0.021
4 | MDAMB134 BREAST | 0.712 ± 0.097 | 0.718 ± 0.13 | 0.624 ± 0.11 | 0.667 ± 0.0014 | 0.767 ± 0.038 | 0.758 ± 0.097 | 0.709 ± 0.1 | 0.904 ± 0.21 | 1.036 ± 0.0099 | 0.934 ± 0.12 | 0.731 ± 0.1 | 0.562 ± 0.14 | 0.393 ± 0.03 | 0.267 ± 0.0035 | 0.281 ± 0.005 | 0.854 ± 0.029
5 | MDAMB157 BREAST | – | 0.818 ± 0.016 | 0.967 ± 0.042 | 0.95 ± 0.029 | 0.836 ± 0.097 | 0.451 ± 0.017 | 0.569 ± 0.071 | 1 ± 0.019 | 0.966 ± 0.087 | 0.968 ± 0.07 | 0.931 ± 0.041 | 0.906 ± 0.09 | 0.743 ± 0.054 | 0.379 ± 0.043 | 0.267 ± 0.022 | 0.877 ± 0.038
6 | MDAMB231 BREAST | – | 0.939 ± 0.017 | 0.957 ± 0.022 | 0.939 ± 0.025 | 0.8698 ± 0.0057 | 0.437 ± 0.014 | 0.303 ± 0.012 | 0.9815 ± 0.006 | 0.978 ± 0.026 | 0.971 ± 0.025 | 0.933 ± 0.024 | 0.676 ± 0.0082 | 0.62 ± 0.035 | 0.243 ± 0.0094 | 0.175 ± 0.0081 | 0.955 ± 0.013
7 | MDAMB361 BREAST | 0.779 ± 0.017 | 0.768 ± 0.029 | 0.807 ± 0.043 | – | 0.858 ± 0.026 | 1.04 ± 0.053 | 1.02 ± 0.047 | 0.894 ± 0.12 | 0.785 ± 0.028 | 0.829 ± 0.051 | 0.853 ± 0.1 | 0.735 ± 0.048 | 0.736 ± 0.061 | 0.594 ± 0.03 | 0.549 ± 0.042 | –
8 | MDAMB436 BREAST | 0.833 ± 0.046 | 0.828 ± 0.06 | 0.844 ± 0.057 | 0.822 ± 0.046 | 0.962 ± 0.067 | 0.872 ± 0.036 | 0.736 ± 0.027 | 0.946 ± 0.13 | 0.962 ± 0.082 | 0.961 ± 0.097 | 0.952 ± 0.13 | 0.555 ± 0.053 | 0.427 ± 0.037 | 0.272 ± 0.025 | 0.256 ± 0.016 | 0.996 ± 0.014
9 | MDAMB453 BREAST | 0.994 ± 0.054 | – | 1.02 ± 0.074 | 1.03 ± 0.026 | 1.06 ± 0.05 | 0.771 ± 0.029 | 0.637 ± 0.013 | 1.1 ± 0.038 | 1.08 ± 0.056 | 1.07 ± 0.07 | 1.1 ± 0.066 | 0.589 ± 0.019 | 0.493 ± 0.034 | 0.363 ± 0.045 | 0.304 ± 0.017 | 1.06 ± 0.014
10 | MDAMB468 BREAST | 0.845 ± 0.076 | – | – | 0.9157 ± 0.004 | 1.05 ± 0.041 | 0.551 ± 0.081 | 0.234 ± 0.019 | 1.15 ± 0.068 | 1.09 ± 0.062 | 1.13 ± 0.1 | 1.04 ± 0.11 | 0.436 ± 0.0053 | 0.302 ± 0.05 | 0.18 ± 0.0087 | 0.178 ± 0.021 | 0.972 ± 0.066
11 | MFM223 BREAST | 0.7 ± 0.052 | 0.747 ± 0.044 | – | 0.751 ± 0.042 | 0.934 ± 0.019 | 0.985 ± 0.064 | 0.836 ± 0.096 | 1.43 ± 0.45 | 1.47 ± 0.56 | 1.33 ± 0.39 | 1.16 ± 0.56 | 0.586 ± 0.066 | 0.42 ± 0.032 | 0.181 ± 0.022 | 0.152 ± 0.062 | 1.05 ± 0.14
